# Assay results from US9782383B2, “Prophylactic and therapeutic agent for attention-deficit/hyperactivity disorder” (FUJIMOTO CO., LTD., priority 2013, dated 2017).
# Read-outs that look alike come from different tables or passages of the source.
# Assays:
# [1] = tested on: ADHD model rats or normal rats; settings: cited from earlier work; for locomotor activities: increasing doses
# [2] = human, in vivo; cited from earlier work
# [3] = tested on: human monoamine transporters (DAT, NET, SERT); settings: highest first; Neuropsychopharmacology 27: 699-711 (2002); cited from earlier work
# [4] = human, in vivo; cited from earlier work; remark: listed apart in the source
# SHRSP/Ezo rats [5] = assay: Y-maze test (inattentive behavior); assay type: in vivo, rat
# Description: (§1) In all the tests described herein, the R configuration (−) substance hydrochloride salt of the compound for use in the invention (hereinafter referred to as “BPAP” in some cases) as the test material and methylphenidate hydrochloride (SIGMA Aldrich) as the comparative drug were dissolved in saline, diluted to a volume of 2 ml/kg before administration, and systemically administered into six-week-old male SHRSP/Ezo rats 30 minutes before behavior tests. Note that BPAP was subcutaneously (s.c.) administered, and methylphenidate was subcutaneously (s.c.) or intraperitoneally (i.p.) administered after the confirmation that there was no difference between the two routes, i.e., the s.c. and i.p. administration.
# The short-term working memory was evaluated as a spontaneous alternation behavior using a Y-maze (45 (length)×10 (width)×35 cm (height)). The spontaneous alternation is a behavior based on the habit of a rodent preferring to investigate a new arm of the maze rather than returning to one that was previously visited in the Y-maze. In order to select three different arms continuously, it is necessary to remember the previously visited arm. To achieve this, therefore, the short-term working memory is considered indispensable. Because the processes of the short-term working memory are closely related to an appropriate amount of attention toward achievement of the task, the short-term working memory implicates aspects of attention. Thus, the Y-maze test was carried out to evaluate the inattentive behavior in SHRSP/Ezo rats.
# The spontaneous alternation was measured according to the method by Sarter et al. (Psychopharmacology (Berl), 94:491-5 (1988)) using the following procedure. Under a 200-lux illuminance condition, each rat was placed in the center of the crossing point of the three arms and allowed to enter the maze arm freely for eight-minute test session, and the sequence of arm entries was recorded. The alteration behavior was defined as the consecutive entry into three arms, i.e. the combination of three different arms, with stepwise combinations in the sequence. The percentage obtained by dividing the spontaneous alternation behavior by the total number of arm entries (total arm entries) minus 2 was determined as the spontaneous alternation behavior rate (alternation rate). For example, assuming that the rat has entered the arms A, B, and C of the Y-maze in the order of ACBABACBAB, the spontaneous alternation behavior is five (ACB, CBA, BAC, ACB, and CBA), the total number of arm entries is ten, and the spontaneous alternation behavior rate is 62.5%. To consider the influence of variations in spontaneous alternation behavior rate among groups during the baseline (drug-untreated) period on the drug efficacy evaluation, the first Y-maze test was carried out three days before the drug efficacy evaluation, and grouping was performed based on the result of spontaneous alternation behavior rates in the 1st Y-maze test.
# (§2) Data were represented as the means±standard errors. Student's t-test was used for the statistics analysis, and a P value below 5% was considered statistically significant.
# SHRSP/Ezo rats [6] = assay: Elevated-plus maze test (impulsivity); assay type: in vivo, rat
# Description: as §1
# The anxiety-related behavior was evaluated using an elevated plus maze (open arm: 50 (length)×10 cm (width), enclosed arm: 50 (length)×10 (width)×40 cm (height), height above the floor: 50 cm). The device is constituted by a wall-less open arm and a wall-surrounding enclosed arm crossing each other at right angles at a height of 50 cm above the floor. An animal staying in an open arm is exposed to anxiety in the elevated wall-less open state. […] The elevated-plus maze test reflects an equilibrium state between the approach behavior (curiosity) and the avoidance behavior driven by anxiety in an animal, and thus is generally used for the evaluation of the anxiety level of an animal.
# In this experiment, under a 200-lux illuminance condition, a rat was placed in the center of the crossing point of two sets of arms and allowed to enter freely into the maze for a ten-minute test session. The total number of arm entries (total arm entries), the time spent in open arms and the rate of open arm entries were analyzed by a video tracking system for behavioral experiments (LimeLight Actimetrics).
# as §2
# [7] = tested on: ADHD model rats or normal rats; assay: Locomotor activity in ADHD model rats or normal rats; assay type: in vivo, rat; settings: high dose
# [8] = tested on: human monoamine transporters (DAT, NET, SERT); assay: Affinity for human monoamine transporters; assay type: binding; settings: for order of affinities for human monoamine transporters: highest first
# SHRSP/Ezo rats [9] = assay: Open field test (hyperactivity, inner zone spent time); assay type: in vivo, rat
# Description: as §1
# The spontaneous locomotor activity in a new environment was evaluated using an open-field apparatus (90 (width)×90 (depth)×40 cm (height), 81 squares).
# In this experiment, under a 200-lux illuminance condition, rats were placed in the center of the open field and allowed to move freely in the field for a 60-minute test session, and the horizontal activities (crossings: the number of squares crossed) during the exploration was analyzed by a video tracking system for behavioral experiments (LimeLight Actimetrics, USA).
# as §2
# Since the spent time in the inner zones (nine compartments in the center) (inner zone spent time) in the open field test is used for the evaluation of the anxiety level, the spent times per time (sec/15 min) and per behavior (sec/count) corrected with the locomotor activity (total crossings) were analyzed as the secondary evaluation in the open field test (FIG. 3). […] SHRSP/Ezo rats show an increase in spent time in the inner zone at the habituated phase during which hyperactivity was observed, indicating a reduction in anxiety level at the habituated phase. […] However, 0.3 mg/kg of BPAP had no effect on the reduction in anxiety level at habituated phase.
# rats = assay: Methamphetamine-seeking behavior in rats
# ADHD patients = settings: cited from earlier work
# [10] = 1 mg/kg as comparative drug (FIG. 1)
# [11] = 1 mg/kg as comparative drug (FIG. 2)
smiles,measurement,setting,value
CNCC[C@@H](Oc1ccccc1C)c1ccccc1 [atomoxetine],locomotor activities during an exploration period,[1],decreases
same,locomotor activities,[1],does not exhibit increases
same,abdominal pain,[2],12.2%
same,headache,[2],22.3%
same,order of affinities for human monoamine transporters,[3],NET>SERT>DAT
same,dry mouth,[4],13.8%
same,headaches,[4],10.5%
"CCCNC(CCC)Cc1cc2ccccc2o1 (single isomer, unassigned; (-)) [BPAP, (−)-1-(benzofuran-2-yl)-2-propylaminopentane]",impaired alternation behavior,"SHRSP/Ezo rats [5]; s.c., 0.03 mg/kg",no improvement action was observed
same,total number of arm entries compared with the first trial (Y1),"SHRSP/Ezo rats [5]; s.c., 0.03 to 0.3 mg/kg",significantly decreased
same,impaired alternation behavior,"SHRSP/Ezo rats [5]; s.c., 0.1 to 0.3 mg/kg",significantly improved
same,rate of open arm entries,"SHRSP/Ezo rats [6]; s.c., 0.1 mg/kg (P=0.08)",tendency to reduce
same,spent time on the open arms per total number of arm entries,"SHRSP/Ezo rats [6]; s.c., 0.1 mg/kg, secondary analysis",significantly reduced
same,extension of the spent time on the open arms,"SHRSP/Ezo rats [6]; s.c., 0.01 to 0.3 mg/kg",no effect
same,spontaneous locomotor activity,[7],increases
same,relative affinity NET/DAT,[8]; compared with methylphenidate,substantially equal
same,relative affinity for SERT (SERT/DAT),[8]; compared with methylphenidate,higher
same,order of affinities for human monoamine transporters,[8],DAT>NET>serotonin transporter (SERT)
same,locomotor activity at the exploration phase,"SHRSP/Ezo rats [9]; s.c., 0.3 mg/kg",no action
same,locomotor activity at the habituated phase,"SHRSP/Ezo rats [9]; s.c., 0.3 mg/kg",no action
same,reduction in anxiety level (inner zone spent time) at habituated phase,"SHRSP/Ezo rats [9]; s.c., 0.3 mg/kg",no effect
same,increase in behavior at the habituated phase,"SHRSP/Ezo rats [9]; s.c., 0.01 to 0.1 mg/kg",significantly inhibited
same,inner zone spent time at the habituated phase,"SHRSP/Ezo rats [9]; s.c., 0.01 to 0.1 mg/kg",significantly reduced
same,locomotor activity at the exploration phase,"SHRSP/Ezo rats [9]; s.c., 0.01 to 0.1 mg/kg",without affecting
same,methamphetamine-seeking behavior,rats; due to drug-associated cues and methamphetamine-priming,inhibition action
same,induction of methamphetamine-seeking behavior (dependence liability),rats; effective dose,did not induce
COC(=O)C(c1ccccc1)C1CCCCN1 (stereo not shown) [methylphenidate],reduction in spontaneous alternation behavior rate,SHRSP/Ezo rats [5]; [10],recovered
same,total number of arm entries,SHRSP/Ezo rats [5]; [10],without increasing
same,increase in the total number of arm entries,"SHRSP/Ezo rats [5]; i.p., 1 mg/kg, dose validation",significant exaltation
same,reduction in spontaneous alternation behavior rate,"SHRSP/Ezo rats [5]; i.p., 1 mg/kg, dose validation",improved
same,increase in the total number of arm entries,"SHRSP/Ezo rats [5]; i.p., 0.01 and 0.1 mg/kg",no influence
same,reduction in spontaneous alternation behavior rate,"SHRSP/Ezo rats [5]; i.p., 0.01 to 1 mg/kg",dose-dependently improved
same,locomotor activities,[1],dose-dependent increases
same,extension of the spent time on the open arms,SHRSP/Ezo rats [6]; 1 mg/kg (FIG. 4),did not improve
same,increase in the rate of open arm entries,SHRSP/Ezo rats [6]; 1 mg/kg (FIG. 4),did not improve
same,increase in the total number of arm entries (hyperactivity),SHRSP/Ezo rats [6]; 1 mg/kg (FIG. 4),significant worsened
same,extension of the open arm spent time,"SHRSP/Ezo rats [6]; i.p., 0.01 to 1 mg/kg",no statistically significant change
same,increase in the number of open arm entries,"SHRSP/Ezo rats [6]; i.p., 0.01 to 1 mg/kg",no statistically significant change
same,order of affinities for human monoamine transporters,[8],DAT>NET>serotonin transporter (SERT)
same,reduction in anxiety level (inner zone spent time) at the habituated phase,SHRSP/Ezo rats [9]; 1 mg/kg (FIG. 3),no effect
same,spent time in the inner zone at the exploration phase,SHRSP/Ezo rats [9]; 1 mg/kg (FIG. 3),significantly increased
same,hyperactivity during the exploration phase (0 to 15 minutes),SHRSP/Ezo rats [9]; [11],worsened
same,hyperactivity during the habituated phase (15 to 60 minutes),SHRSP/Ezo rats [9]; [11],worsened
same,hyperactivity (horizontal ambulatory) in open field test,"SHRSP/Ezo rats [9]; i.p., 1 mg/kg",did not decreased
same,hyperactivity (horizontal ambulatory) in open field test,"SHRSP/Ezo rats [9]; i.p., 0.01 and 0.1 mg/kg",significantly decreased
same,increase in spontaneous ambulatory in open field test,"SHRSP/Ezo rats [9]; i.p., 3 and 30 mg/kg",exacerbated
same,share of ADHD patients for whom the drug is ineffective,ADHD patients,approximately three out of ten
